Results reported in patent US12577219B2, “Macrolide brefeldin a ester derivatives and use thereof” (OCEAN UNIVERSITY OF CHINA, priority 2019, dated 2026).
Converted amounts (≈) assume the structure as drawn.

Columns and labels:
Kunming breed mice = experiment: Toxicity test after intraperitoneal administration to mice; format: in vivo; conditions: ip.; for Organ abnormality at anatomy: anatomy on the 14 th day; for Mental condition of the animals after administration: high and low doses; for Deaths after administration: high and low doses (BFA effective amount conversion), 14 d
Description: Objective: Observation of toxic effects of compounds after intraperitoneally administration (ip.) to mice
1) Agents: Compounds disclosed herein were formulated to a suitable concentration.
2) Animals: Kunming breed mice, weight 18-22 g, male. Provided by Jinan Pengyue Laboratory Animal Breeding Co., Ltd. Animal license number: SCXK (Shandong 20140007)
Method: Kunming breed mice, were randomly grouped by weight, 6 mice per group, namely normal control group, BFA high and low dose groups (100 mg/kg and 50 mg/kg, respectively), and high and low dose groups of some compounds disclosed herein (BFA effective amount conversion). […] After 14 d of continuous administration, all the animals were weighed, and the animals were executed to observe whether there were any abnormalities in the organs.

[1] = system: Human cervical cancer Hela cells; experiment: Cell proliferation assay (CCK-8); format: cell-based; conditions: 72 h
Description: (§1) CCK-8 method: The CCK-8 method is a highly sensitive, non-radioactive colorimetric assay for the determination of the number of viable cells in cell proliferation or cytotoxicity assays. The orange formazan dye produced by the bioreduction of CCK-8 by intracellular dehydrogenase is soluble in the cell culture medium, and the amount of formazan dye produced is proportional to the number of living cells. The kit used in this method is the tetrazolium salt-WST-8 (2-(2-methoxy-4-nitrophenyl)-3-(4-nitrophenyl)-5-(2,4-disulfophenyl)-2H-tetrazolium monosodium salt) developed by Dojindo Chemical Research Institute (Dojindo), which is capable of being reduced to a water-soluble formazan dye in the presence of the electronic carrier 1-Methoxy PMS.
(§2) Human cervical cancer Hela cells, pancreatic cancer PANC-1cells, esophageal cancer Eca-109 cells, human leukemia K562 cells, human lung cancer A549 cells, human liver cancer HepG2 cells, human gastric cancer MKN-45 cells, human breast cancer MCF7 cells were cultured in DMEM medium containing 10% FBS (fetal bovine serum), 100 U/mL penicillin and 100 μg/ml streptomycin. Hepatocellular carcinoma cells Bel-7402 were cultured in RPMI-1640 medium containing 10% FBS (fetal bovine serum), 100 U/ml penicillin and 100 μg/ml streptomycin. All cells were placed in a cell culture incubator at 37° C. with 5% CO2. Cells fluid was changed every 3-5 days, and after 80% cell fusion, trypsin digestion and passaging were performed to keep the cells in good logarithmic growth phase.
(§3) All the samples to be tested were dissolved in DMSO.
(§4) Cells in logarithmic growth phase were inoculated in 96-well plates with 5000 cells/well respectively, and after 24 h of incubation, samples were added (final concentrations as shown in the table), and biplicate wells were set up for each sample. The amount of solvent of DMSO was not higher than 2%. After 72 h, 10 μL of CCK-8 solution was added to each well and incubated for 1.5˜3 h at 37° C. The OD value at 450 nm was measured on an plate reader. Inhibition rate (%)=(1−[(OD450 dosed well−OD450 blank well)/(OD450 control well−OD450 blank well)])×100%
(§5) The fitted IC50 values were calculated using the log (inhibitor) vs. response—Variable slop analysis method in GraphPad Prism software.

[2] = system: human breast cancer MCF7 cells; experiment: Cell proliferation assay (CCK-8); format: cell-based; conditions: MCF7, 72 h
Description: as §1, §2, §3, §4, §5

[3] = system: human gastric cancer MKN-45 cells; experiment: Cell proliferation assay (CCK-8); format: cell-based; conditions: MKN-45, 72 h
Description: as §1, §2, §3, §4, §5

[4] = system: human leukemia K562 cells; experiment: Cell proliferation assay (CCK-8); format: cell-based; conditions: K562, 72 h
Description: as §1, §2, §3, §4, §5

[5] = system: human liver cancer HepG2 cells; experiment: Cell proliferation assay (CCK-8); format: cell-based; conditions: HepG2, 72 h
Description: as §1, §2, §3, §4, §5

[6] = system: human lung cancer A549 cells; experiment: Cell proliferation assay (CCK-8); format: cell-based; conditions: A549, 72 h
Description: as §1, §2, §3, §4, §5

[7] = system: esophageal cancer Eca-109 cells; experiment: Cell proliferation assay (CCK-8); format: cell-based, human; conditions: Eca-109, 72 h
Description: as §1, §2, §3, §4, §5

[8] = system: pancreatic cancer PANC-1cells; experiment: Cell proliferation assay (CCK-8); format: cell-based, human; conditions: PANC-1, 72 h
Description: as §1, §2, §3, §4, §5

[9] = Solubility test (shaker 37° C., 24 h, HPLC); conditions: for solubility at 24 h: 37 °C, thermodynamic from solid
Method: (§6) The term “solubility” refers to the mass of solute dissolved when a solid substance reaches saturation state in 100 g solvent at a certain temperature.
(§7) Methods: Excess BFA and the compounds disclosed herein were added to 10 mL of three solvents, methanol, acetone and 5% DMSO+95% H2O, respectively, and shaken on a shaker at 37° C. at 100 r/min for 24 h. After 24 h, the samples were centrifuged at 15,000 r/min for 15 min to remove the undissolved compounds. The supernatant was filtered using a 0.45 μm membrane filter. The supernatant was appropriately diluted with methanol and contents of the compounds were determined by HPLC method to calculate the solubility.

physchem = conditions: 37 °C, thermodynamic from solid, x ± s, n = 3
Method: as §6, §7

| IC50 ([1]; Homo sapiens) | IC50 ([2]; Homo sapiens) | IC50 ([3]; Homo sapiens) | IC50 ([4]; Homo sapiens) | IC50 ([5]; Homo sapiens) | IC50 ([6]; Homo sapiens) | IC50 ([7]; Homo sapiens) | IC50 ([8]; Homo sapiens) | SMILES | Organ abnormality at anatomy (Kunming breed mice) | Mental condition of the animals after administration (Kunming breed mice) | Deaths after administration (Kunming breed mice) | also measured |
| --- | --- | --- | --- | --- | --- | --- | --- | --- | --- | --- | --- | --- |
|  |  |  |  |  |  |  |  | C[C@H]1CCC/C=C/[C@@H]2C[C@H](O)C[C@H]2[C@H](OC(=O)/C=C/c2cccc(F)c2)/C=C/C(=O)O1 [Compound 1b, 4-O-(3-fluorocinnamic acid)acyl BFA] | no significant abnormality in all organs | good mental condition | no deaths |  |
|  |  |  |  |  |  |  |  | C[C@H]1CCC/C=C/[C@@H]2C[C@H](O)C[C@H]2[C@H](OC(=O)/C=C/c2cccnc2)/C=C/C(=O)O1 [Compound 16b] | no significant abnormality in all organs | good mental condition | no deaths |  |
|  |  |  |  |  |  |  |  | C[C@H]1CCC/C=C/[C@@H]2C[C@H](O)C[C@H]2[C@H](O)/C=C/C(=O)O1 [BFA, Brefeldin A] |  |  |  | IC50 [1]: 100 to 1000 nM; IC50 [2]: < 100 nM; IC50 [3]: 100 to 1000 nM; IC50 [4]: 100 to 1000 nM; IC50 [5]: 100 to 1000 nM; IC50 [6]: 100 to 1000 nM; IC50 [7]: 100 to 1000 nM; IC50 [8]: < 100 nM; Solubility, 5% DMSO + 95% H2O ([9]; 5% DMSO + 95% H2O, 37° C., 24 h, x ± s, n = 3): 85 ± 30 µg/mL; Solubility, Acetone ([9]; acetone, 37° C., 24 h, x ± s, n = 3): 3130 ± 1240 µg/mL (≈ 11.2 mM); Solubility, Methanol ([9]; methanol, 37° C., 24 h, x ± s, n = 3): 3130 ± 1240 µg/mL (≈ 11.2 mM) |
|  |  |  |  |  |  |  |  | C[C@H]1CCC/C=C/[C@@H]2C[C@H](OC(=O)/C=C/c3cnc4ccccc4c3)C[C@H]2[C@H](OC(=O)/C=C/c2cnc3ccccc3c2)/C=C/C(=O)O1 [Compound 17c] |  |  |  | IC50 [1]: 1000 to 10000 nM; IC50 [2]: 100 to 1000 nM; IC50 [3]: 1000 to 10000 nM; IC50 [4]: 100 to 1000 nM; IC50 [5]: 100 to 1000 nM; IC50 [6]: 1000 to 10000 nM; IC50 [7]: 1000 to 10000 nM; IC50 [8]: 100 to 1000 nM |
| 1000 to 10000 nM | 100 to 1000 nM | 1000 to 10000 nM | 100 to 1000 nM | 1000 to 10000 nM | 1000 to 10000 nM | 1000 to 10000 nM | 100 to 1000 nM | C[C@H]1CCC/C=C/[C@@H]2C[C@H](O)C[C@H]2[C@H](OC(=O)/C=C/c2ccccc2)/C=C/C(=O)O1 [Compound B] |  |  |  | solubility at 24 h ([9]; 5% DMSO + 95% H2O, aqueous with cosolvent or surfactant or cyclodextrin): 220 ± 160 µg/mL; solubility at 24 h ([9]; acetone, organic solvent or mixture): 9480 ± 3230 µg/mL (≈ 23.1 mM); solubility at 24 h ([9]; methanol, organic solvent or mixture): 9410 ± 1510 µg/mL (≈ 22.9 mM) |
| 100 to 1000 nM | 1000 to 10000 nM | 100 to 1000 nM | 1000 to 10000 nM | > 10000 nM | 100 to 1000 nM | 100 to 1000 nM | < 100 nM | COc1cccc2c1C(=O)c1c(O)c3c(c(O)c1C2=O)C[C@@](O)(C(=O)CO)C[C@@H]3O[C@H]1C[C@H](N)[C@H](O)[C@H](C)O1 [Adriamycin] |  |  |  |  |
|  |  |  |  |  |  |  |  | C[C@H]1CCC/C=C/[C@@H]2C[C@H](O)C[C@H]2[C@H](OC(=O)/C=C/c2ccc(N(C)C)cc2)/C=C/C(=O)O1 [Compound 10b, 4-O-(4-dimethylaminocinnamic acid)acyl BFA] | no significant abnormality in all organs | good mental condition | no deaths |  |

| SMILES | IC50 ([1]; Homo sapiens) | IC50 ([2]; Homo sapiens) | IC50 ([3]; Homo sapiens) | IC50 ([4]; Homo sapiens) | IC50 ([5]; Homo sapiens) | IC50 ([6]; Homo sapiens) | IC50 ([7]; Homo sapiens) | IC50 ([8]; Homo sapiens) | Organ abnormality at anatomy (Kunming breed mice) | Mental condition of the animals after administration (Kunming breed mice) | Deaths after administration (Kunming breed mice) | also measured |
| --- | --- | --- | --- | --- | --- | --- | --- | --- | --- | --- | --- | --- |
| C[C@H]1CCC/C=C/[C@@H]2C[C@H](OC(=O)/C=C/c3ccccc3)C[C@H]2[C@H](O)/C=C/C(=O)O1 [Compound A] | 1000 to 10000 nM | 100 to 1000 nM | 1000 to 10000 nM | 100 to 1000 nM | 1000 to 10000 nM | 1000 to 10000 nM | 1000 to 10000 nM | 100 to 1000 nM |  |  |  | solubility at 24 h (physchem; aqueous with cosolvent or surfactant or cyclodextrin, 5% DMSO + 95% H2O): 220 ± 130 µg/mL; solubility at 24 h (physchem; organic solvent or mixture, Acetone): 9460 ± 1260 µg/mL (≈ 23 mM); solubility at 24 h (physchem; organic solvent or mixture, Methanol): 9480 ± 1010 µg/mL (≈ 23.1 mM) |
